In brackets after ≈: the same amount, converted by molar mass. Bounds are passed on as bounds.

The subject of the assay is P388. Put plainly: Cytotoxicity against P388 mouse leukemia cells. The class given is functional, cell-based.

Broadly, the IC50 is the concentration needed to halve the response being measured. The low end stands for greater potency in that assay, the high end for weaker potency in that assay. Turning to `CN(C)c1ncnc2c1ncn2C1CC(COS(N)(=O)=O)C(O)C1O` (centres undefined), the IC50 came out at 74 µg/mL (≈ 199 µM). The same measure for `Nc1ncnc2c1ncn2COCCOS(N)(=O)=O`: greater than 100 µg/mL. The same measure for `Nc1ncnc2c1nnn2C1CC(CO)C(O)C1O` (centres undefined): 0.5 µg/mL (≈ 1.88 µM); for `CSc1ncnc2c1ncn2C1CC(COS(N)(=O)=O)C(O)C1O` (centres undefined): 50 µg/mL (≈ 133 µM); for `CNc1ncnc2c1ncn2C1CC(COS(N)(=O)=O)C(O)C1O` (centres undefined): 4 µg/mL (≈ 11.2 µM). Next, `Nc1ncnc2c1nnn2C1CC(COS(N)(=O)=O)C(O)C1O` (centres undefined): 0.0625 µg/mL (≈ 0.181 µM); `Nc1ncnc2c1ncn2C1CC(COS(N)(=O)=O)C(O)C1O` (centres undefined): 0.125 µg/mL (≈ 0.363 µM); `Nc1ncnc2c1ncn2[C@@H]1C[C@H](CO)[C@@H](O)[C@H]1O` [ARISTEROMYCIN]: 0.5 µg/mL (≈ 1.88 µM).

As to `COc1ccc(C[C@H](N)C(=O)N[C@H]2[C@@H](O)[C@H](n3cnc4c(N(C)C)ncnc43)O[C@@H]2CO)cc1` [PUROMYCIN], the IC50 worked out at 0.5 µg/mL (≈ 1.06 µM).
